Article PMC9496228, “Plasma Clearance of Intravenously Infused Adrenomedullin in Rats with Acute Renal Failure” (Biomolecules, 2022)
Like-named read-outs stand apart in the source and are kept apart here.

Assays:
[1] = Human adrenomedullin 60-min continuous intravenous infusion study in rats, plasma pharmacokinetics; type: in vivo, rat; conditions: mean ± SD; for level at time molar at 1 h / half-life / clearance: male, Lewis, rat, in vivo; for level at time molar at 1 h: 0.1 ug/kg/min, hAM iv infusion 0.1 µg/kg/min, read-out: Plasma AM concentration at 60 min after initiating treatment (AM C60); for half-life: read-out: T1/2β, half-life in the terminal phase after stopping infusion; for clearance: hAM iv infusion 0.1 µg/kg/min for 60 min, dose divided by AUC0–60, read-out: CLtotal, total systemic clearance
Experimental: Renal dysfunction was induced by subcutaneous injection of 3 mg/kg mercury chloride (1 mg/mL saline) to rats (RD-Ag, n = 7) on the day before the adrenomedullin pharmacokinetic study. Control rats were treated with saline (normal renal function, NF, n = 5). Twenty-four hours after injection of mercury chloride (4 h before hAM administration), blood was collected from the tail vein of rats and serum creatinine (sCr) was measured using DRI-CHEM (FUJIFILM, Tokyo, Japan) to confirm the severity of renal damage. After the hAM administration study, the lungs and kidneys were removed from each group of rats, immersed in RNAlater (Thermo Fisher Scientific, Waltham, MA, USA), and frozen at −30 °C for later analysis.
Rats were subjected to cannulation at the beginning as described below. After laparotomy through a midline abdominal incision, the bilateral renal artery and vein of the rat were exposed and blocked with vascular clips to develop another model of renal dysfunction (RD-Bl, n = 3). Immediately after the vascular blockade, the rats were studied for hAM infusion experiment.
Rats under isoflurane anesthesia were placed on a heated surgical table in the supine position and subjected to cannulation (PE 50, Becton, Dickinson and Company, Franklin Lakes, NJ, USA) of the carotid artery and jugular vein. Human AM was dissolved in 20% mannitol to a concentration of 300 ng/mL and continuously administered at 0.1 µg/kg/min for 60 min via venous cannula using an infusion pump (KDS-100, KD Scientific, Holliston, MA, USA). After hAM administration had begun, 0.6 mL of whole blood was drawn from the arterial cannula at 0, 5, 10, 20, 30, 45, 60, 61.5, 63, 65, 70, 75, 80, and 90 min.
(§1) To measure plasma hAM concentrations, whole blood was collected with 2 mg/mL EDTA-2Na and 500 Kallikrein Inhibitory Units (KIU)/mL of aprotinin. Plasma was obtained by centrifugation at 10,000× g for 2 min at 4 °C and stored at −30 °C until the assays were performed. Plasma hAM concentration was measured using an automated immunoassay system (AIA-System, Tosoh Corporation, Tokyo, Japan) that was described previously, including intra- and inter-assay variations. This system is a one-step fluorescence sandwich immunoassay for the detection of human AM using two monoclonal antibodies against human AM(12–25) and AM(46–52).
Pharmacokinetic parameters in rats were calculated from individual plasma AM concentration vs time curves during and after 1 h intravenous infusion of hAM based on standard procedures. The area under the plasma concentration vs time curve (AUC0–60) was calculated during the first 60 min using a linear trapezoidal method, and the total systemic clearance (CLtotal) was calculated as the dose administered divided by AUC0–60. A plot of plasma concentration vs time after stopping hAM infusion yielded a biexponential curve. The elimination rate constant and half-life (T1/2β) in the terminal phase were calculated from individual plasma AM concentration vs time curves with a two-compartment model using the Solver tool in Microsoft Excel to minimize the sum of the squared residual values. Weighting was set to the standard deviation of plasma concentrations measured at each blood sampling point.

[2] = Human adrenomedullin intraperitoneal administration study in E-RAMP2 KO and control mice, plasma concentration; conditions: mouse, in vivo, ip, 50 ug/kg, mean ± SD, read-out: Plasma AM concentration; for level at time molar at 10 min: 10 min after 50 μg/kg hAM intraperitoneally; for level at time molar at 0.5 h: 30 min after 50 μg/kg hAM intraperitoneally
Experimental: E-RAMP2 KO mice (aged 9–10 weeks) were generated by intraperitoneal administration of 75 mg/kg tamoxifen suspended in corn oil (20 mg/mL) once daily for five consecutive days. Mice of the same strain treated only with corn oil were used as a control group. Three to four mice were prepared for each blood collection point.
as §1

[3] = molecular target: AM receptor (CLR and RAMP2 or -3 heterodimeric receptors); conditions: read-out: equilibrium dissociation constant for its receptor (Kd); cited from earlier work
Description: Therefore, the administered AM appears to bind almost exclusively to its receptor and undergo receptor-mediated clearance. The AM receptor is made up of CLR and RAMP2 or -3 heterodimeric receptors. RAMP2 or -3 is a molecular chaperone required for CLR transport to the cell surface as well as for specifying the affinity of CLR for AM [35]. The distribution of ^125I-labeled AM in ...

[4] = RD-Bl rats (bilateral renal blood flow blockage, n = 3)

**Q.** For `CC[C@H](C)[C@H](NC(=O)[C@H](CCC(N)=O)NC(=O)[C@H](Cc1c[nH]cn1)NC(=O)[C@H](C)NC(=O)[C@H](CC(C)C)NC(=O)[C@H](CCCCN)NC(=O)[C@H](CCC(N)=O)NC(=O)[C@@H](NC(=O)[C@@H](NC(=O)[C@@H]1CSSC[C@H](NC(=O)CNC(=O)[C@H](Cc2ccccc2)NC(=O)[C@H](CO)NC(=O)[C@H](CCCNC(=N)N)NC(=O)[C@H](CC(C)C)NC(=O)CNC(=O)[C@H](CCC(N)=O)NC(=O)[C@H](Cc2ccccc2)NC(=O)[C@H](CC(N)=O)NC(=O)[C@H](CC(N)=O)NC(=O)[C@H](CCSC)NC(=O)[C@H](CO)NC(=O)[C@H](CCC(N)=O)NC(=O)[C@H](CCCNC(=N)N)NC(=O)[C@@H](N)Cc2ccc(O)cc2)C(=O)N[C@@H](CCCNC(=N)N)C(=O)N[C@@H](Cc2ccccc2)C(=O)NCC(=O)N[C@@H]([C@@H](C)O)C(=O)N1)[C@@H](C)O)C(C)C)C(=O)N[C@@H](Cc1ccc(O)cc1)C(=O)N[C@@H](CCC(N)=O)C(=O)N[C@@H](Cc1ccccc1)C(=O)N[C@H](C(=O)N[C@@H](CC(=O)O)C(=O)N[C@@H](CCCCN)C(=O)N[C@@H](CC(=O)O)C(=O)N[C@@H](CCCCN)C(=O)N[C@@H](CC(=O)O)C(=O)N[C@@H](CC(N)=O)C(=O)N[C@H](C(=O)N[C@@H](C)C(=O)N1CCC[C@H]1C(=O)N[C@@H](CCCNC(=N)N)C(=O)N[C@@H](CO)C(=O)N[C@@H](CCCCN)C(=O)N[C@H](C(=O)N[C@@H](CO)C(=O)N1CCC[C@H]1C(=O)N[C@@H](CCC(N)=O)C(=O)NCC(=O)N[C@@H](Cc1ccc(O)cc1)C(N)=O)[C@@H](C)CC)C(C)C)[C@@H](C)O` [AM, Human adrenomedullin], which “T1/2β, half-life in the terminal phase after stopping infusion” value ([1]; RD-Ag rats (mercury chloride, n = 7), after 60-min iv infusion of hAM 0.1 µg/kg/min, two-compartment model) is on record?
**A.** The value was 22.2 ± 9.8 min.

**Q.** And the level at time molar at 1 h [1, 4]?
**A.** Its level at time molar at 1 h is 0.0781 ± 0.0105 nM.

**Q.** What about the half-life ([1]; iv, 0.1 µg/kg/min, NF rats (n = 5), after 60-min iv infusion of hAM 0.1 µg/kg/min, two-compartment model) of the same molecule?
**A.** The half-life was 15 ± 1.4 min.

**Q.** And the clearance ([1]; iv, 0.1 µg/kg/min, NF rats (n = 5))?
**A.** Its clearance is 752 ± 230 mL/min/kg.

**Q.** And the level at time molar at 1 h ([1]; iv, NF rats (n = 5))?
**A.** Its level at time molar at 1 h is 0.049 ± 0.0136 nM.

**Q.** What about the clearance ([1]; iv, 0.1 µg/kg/min, RD-Ag rats (mercury chloride, n = 7)) of the same molecule?
**A.** The clearance was 192 ± 102 mL/min/kg.

**Q.** And the level at time molar at 1 h ([1]; iv, RD-Ag rats (mercury chloride, n = 7))?
**A.** The level at time molar at 1 h was 0.162 ± 0.0887 nM.

**Q.** What about the half-life ([1]; RD-Bl rats (bilateral renal blood flow blockage, n = 3), after 60-min iv infusion of hAM 0.1 µg/kg/min, two-compartment model) of the same molecule?
**A.** The half-life was 16.7 ± 1.8 min.

**Q.** What about the clearance [1, 4] of the same molecule?
**A.** The clearance was 450 ± 68.9 mL/min/kg.

**Q.** What about the level at time molar at 10 min ([2]; E-RAMP2 KO mice (n = 3–4)) of the same molecule?
**A.** The level at time molar at 10 min was 3.98 ± 0.381 nM.

**Q.** What about the level at time molar at 0.5 h ([2]; E-RAMP2 KO mice (n = 3–4)) of the same molecule?
**A.** The level at time molar at 0.5 h was 0.759 ± 0.234 nM.

**Q.** What about the level at time molar at 10 min ([2]; control mice (Cont, n = 3–4)) of the same molecule?
**A.** The level at time molar at 10 min was 1.07 ± 0.595 nM.

**Q.** And the level at time molar at 0.5 h ([2]; control mice (Cont, n = 3–4))?
**A.** The level at time molar at 0.5 h was 0.118 ± 0.0737 nM.

**Q.** And the Kd [3]?
**A.** The Kd was 0.3 to 0.6 nM.
